This assay has as its system Aβ40 in conditioned medium of cells stably expressing Amyloid Precursor Protein (APP). Nature of the assay: BACE cell-based assay: Aβ40 in conditioned medium by sandwich ELISA. The note with it: cell based assay data of Table 4; unit inferred; read-out: Cell Assay. In a few lines:
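APP-stable cells grown 24 h in DMEM/10% FBS, then exposed to compounds for 24 h in a 10-point dose series starting at 100 or 10 μM, 0.1% DMSO final. Medium Aβ40 measured by pAb40/biotinylated 6E10 sandwich ELISA with Europium time-resolved fluorescence; IC50 from percent inhibition.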

Consider `CCCc1nc(C[C@H](NC(C)=O)[C@H](O)CN[C@H]2CC3(CCC3)Oc3ncc(CC(C)(C)C)cc32)cs1` [compound 636, N-((1S,2R)-3-(((4′S)-6′-(2,2-dimethylpropyl)-3′,4′-dihydrospiro[cyclobutane-1,2′-pyrano[2,3-b]pyridin]-4′-yl)amino)-2-hydroxy-1-((2-propyl-1,3-thiazol-4-yl)methyl)propyl)acetamide], for which the IC50 was determined as 14.6 nM.

Consider `CCCc1scnc1C[C@H](NC(C)=O)[C@H](O)CN[C@H]1CC2(CCC2)Oc2ncc(CC(C)(C)C)cc21` [compound 637, N-((1S,2R)-3-(((4′S)-6′-(2,2-dimethylpropyl)-3′,4′-dihydrospiro[cyclobutane-1,2′-pyrano[2,3-b]pyridin]-4′-yl)amino)-2-hydroxy-1-((5-propyl-1,3-thiazol-4-yl)methyl)propyl)acetamide], for which the IC50 is 922 nM.

Regarding `CC(=O)N[C@@H](Cc1cncs1)[C@H](O)CN[C@H]1CC2(CCC2)Oc2ncc(CC(C)(C)C)cc21` [compound 638, N-((1S,2R)-3-(((4′S)-6′-(2,2-dimethylpropyl)-3′,4′-dihydrospiro[cyclobutane-1,2′-pyrano[2,3-b]pyridin]-4′-yl)amino)-2-hydroxy-1-(1,3-thiazol-5-ylmethyl)propyl)acetamide], the IC50 was determined as 2.32 nM.

With `CC(=O)N[C@@H](Cc1csc(C)n1)[C@H](O)CN[C@H]1CC2(CCC2)Oc2ncc(CC(C)(C)C)cc21` [compound 639, N-((1S,2R)-3-(((4′S)-6′-(2,2-dimethylpropyl)-3′,4′-dihydrospiro[cyclobutane-1,2′-pyrano[2,3-b]pyridin]-4′-yl)amino)-2-hydroxy-1-((2-methyl-1,3-thiazol-4-yl)methyl)propyl)acetamide], the IC50 was 23.7 nM.

For `CC(=O)N[C@@H](Cc1ccnc(C)c1)[C@H](O)CN[C@H]1CC2(CCC2)Oc2ncc(CC(C)(C)C)cc21` [compound 640, N-((1S,2R)-3-(((4′S)-6′-(2,2-dimethylpropyl)-3′,4′-dihydrospiro[cyclobutane-1,2′-pyrano[2,3-b]pyridin]-4′-yl)amino)-2-hydroxy-1-((2-methyl-4-pyridinyl)methyl)propyl)acetamide], the IC50 came out at 9.89 nM.

Take `CC(=O)N[C@@H](Cc1nc(Cl)cs1)[C@H](O)CN[C@H]1CC2(CCC2)Oc2ncc(CC(C)(C)C)cc21` [compound 641, N-((1S,2R)-1-((4-chloro-1,3-thiazol-2-yl)methyl)-3-(((4′S)-6′-(2,2-dimethylpropyl)-3′,4′-dihydrospiro[cyclobutane-1,2′-pyrano[2,3-b]pyridin]-4′-yl)amino)-2-hydroxypropyl)acetamide]: the IC50 is 6.82 nM.

With `CC(=O)N[C@@H](Cc1ccnc(Cl)c1)[C@H](O)CN[C@H]1CC2(CCC2)Oc2ncc(CC(C)(C)C)cc21` [compound 642, N-((1S,2R)-1-((2-chloro-4-pyridinyl)methyl)-3-(((4′S)-6′-(2,2-dimethylpropyl)-3′,4′-dihydrospiro[cyclobutane-1,2′-pyrano[2,3-b]pyridin]-4′-yl)amino)-2-hydroxypropyl)acetamide], the IC50 is 3.37 nM.

Regarding `COc1cc(C[C@H](NC(C)=O)[C@H](O)CN[C@H]2CC3(CCC3)Oc3ncc(CC(C)(C)C)cc32)ccn1` [compound 643, N-((1S,2R)-3-(((4′S)-6′-(2,2-dimethylpropyl)-3′,4′-dihydrospiro[cyclobutane-1,2′-pyrano[2,3-b]pyridin]-4′-yl)amino)-2-hydroxy-1-((2-(methyloxy)-4-pyridinyl)methyl)propyl)acetamide], the IC50 was determined as 6.79 nM.

With `CC(=O)N[C@@H](Cc1cc(C)nc(Cl)c1)[C@H](O)CN[C@H]1CC2(CCC2)Oc2ncc(CC(C)(C)C)cc21` [compound 644, N-((1S,2R)-1-((2-chloro-6-methyl-4-pyridinyl)methyl)-3-(((4′S)-6′-(2,2-dimethylpropyl)-3′,4′-dihydrospiro[cyclobutane-1,2′-pyrano[2,3-b]pyridin]-4′-yl)amino)-2-hydroxypropyl)acetamide], the IC50 was determined as 6.32 nM.

With `CC(=O)N[C@@H](Cc1ccnc(OCC(F)(F)F)c1)[C@H](O)CN[C@H]1CC2(CCC2)Oc2ncc(CC(C)(C)C)cc21` [compound 645, N-((1S,2R)-3-(((4′S)-6′-(2,2-dimethylpropyl)-3′,4′-dihydrospiro[cyclobutane-1,2′-pyrano[2,3-b]pyridin]-4′-yl)amino)-2-hydroxy-1-((2-((2,2,2-trifluoroethyl)oxy)-4-pyridinyl)methyl)propyl)acetamide], the IC50 amounted to 5.16 nM.

For `CC(=O)N[C@@H](Cc1cc2ccccc2o1)[C@H](O)CN[C@H]1CC2(CCC2)Oc2ncc(CC(C)(C)C)cc21` [compound 646, N-((1S,2R)-1-(1-benzofuran-2-ylmethyl)-3-(((4′S)-6′-(2,2-dimethylpropyl)-3′,4′-dihydrospiro[cyclobutane-1,2′-pyrano[2,3-b]pyridin]-4′-yl)amino)-2-hydroxypropyl)acetamide], the IC50 was determined as 52.9 nM.

As to `CC(=O)N[C@@H](Cc1ccnc(C(F)(F)F)n1)[C@H](O)CN[C@H]1CC2(CCC2)Oc2ncc(CC(C)(C)C)cc21` [compound 647, N-((1S,2R)-3-(((4′S)-6′-(2,2-dimethylpropyl)-3′,4′-dihydrospiro[cyclobutane-1,2′-pyrano[2,3-b]pyridin]-4′-yl)amino)-2-hydroxy-1-((2-(trifluoromethyl)-4-pyrimidinyl)methyl)propyl)acetamide], the IC50 worked out at 152 nM.

In the case of `CC(=O)N[C@@H](Cc1ccc(C(F)(F)F)cc1)[C@H](O)CN[C@H]1CC2(CCC2)Oc2ncc(CC(C)(C)C)cc21` [compound 648], the IC50 was determined as 189 nM.

Take `CC(=O)N[C@@H](Cc1ccn(C)c(=O)c1)[C@H](O)CN[C@H]1CC2(CCC2)Oc2ncc(CC(C)(C)C)cc21` [compound 649]: the IC50 stood at 30 nM.

For the molecule `CC(=O)N[C@@H](Cc1ccc(F)cc1)[C@H](O)CN[C@H]1CC2(CCC2)Oc2ncc(CC(C)(C)C#N)cc21` [compound 650], the IC50 stood at 20.2 nM.

As for `CC(=O)N[C@@H](Cc1cccc(F)c1)[C@H](O)CN[C@H]1CC2(CCC2)Oc2ncc(CC(C)(C)C#N)cc21` [compound 651], the IC50 worked out at 4.24 nM.

In the case of `CC(=O)N[C@@H](Cc1ccccc1)[C@H](O)CN[C@H]1CC2(CCC2)Oc2ncc(CC(C)(C)C(F)F)cc21` [compound 652], the IC50 turned out to be 7.84 nM.

On to `CCc1cc2c(s1)CC1(CCC1)C[C@@H]2NC[C@@H](O)[C@H](Cc1ccccc1)NC(C)=O` [compound 653, N-((1S,2R)-3-(((4S)-2-ethyl-4,7-dihydro-5H-spiro[1-benzothiophene-6,1′-cyclobutan]-4-yl)amino)-2-hydroxy-1-(phenylmethyl)propyl)acetamide], for which the IC50 was 127 nM.

For `CC(=O)N[C@@H](Cc1ccccc1)[C@H](O)CN[C@H]1CC(C)(C)Cc2sc(CC(C)(C)C)cc21` [compound 654, N-((1S,2R)-3-(((4S)-2-(2,2-dimethylpropyl)-6,6-dimethyl-4,5,6,7-tetrahydro-1-benzothien-4-yl)amino)-2-hydroxy-1-(phenylmethyl)propyl)acetamide], the IC50 is 13.8 nM.

On to `COC(=O)N[C@@H](Cc1ccccc1)[C@H](O)CN[C@H]1CC(C)(C)Cc2sc(CC(C)(C)C)cc21` [compound 655, methyl ((1S,2R)-3-(((4S)-2-(2,2-dimethylpropyl)-6,6-dimethyl-4,5,6,7-tetrahydro-1-benzothien-4-yl)amino)-2-hydroxy-1-(phenylmethyl)propyl)carbamate], for which the IC50 came out at 105 nM.

As for `CC(=O)N[C@@H](Cc1cc(F)cc(F)c1)[C@H](O)CN[C@H]1CC2(CCC2)Oc2nc(F)c(CC(C)(C)C)cc21` [compound 659], the IC50 was determined as 6.42 nM.

Consider `CC(=O)N[C@@H](Cc1cccc(F)c1)[C@H](O)CN[C@H]1CC2(CCC2)Oc2nc(F)c(CC(C)(C)C)cc21` [compound 661], for which the IC50 worked out at 10.2 nM.

With `CC(=O)N[C@@H](Cc1ccc(F)cc1)[C@H](O)CN[C@H]1CC2(CCC2)Oc2nc(F)c(CC(C)(C)C)cc21` [compound 662], the IC50 is 94.7 nM.

Regarding `COc1ccc(C[C@H](NC(C)=O)[C@H](O)CN[C@H]2CC3(CCC3)Oc3ncc(CC(C)(C)C)cc32)cc1F` [compound 665], the IC50 came out at 8.53 nM.

As for `COc1ccc(C[C@H](NC(C)=O)[C@@H](O)CN[C@H]2CC3(CCC3)Oc3ncc(CC(C)(C)C)cc32)cc1F` [compound 666], the IC50 worked out at 162 nM.

On to `CC(=O)N[C@@H](Cc1ccc(Cl)cc1)[C@H](O)CN[C@H]1CC2(CCC2)Oc2nc(F)c(CC(C)(C)C)cc21` [compound 667], for which the IC50 stood at 385 nM.

Regarding `CC(=O)N[C@@H](Cc1ccc(Cl)cc1)[C@H](O)CN[C@H]1C[C@@]2(CCOC2)Oc2ncc(CC(C)(C)C)cc21` [compound 669], the IC50 is at least 10000 nM.

Regarding `CC(=O)N[C@@H](Cc1ccc(Cl)cc1)[C@H](O)CN[C@H]1C[C@]2(CCOC2)Oc2ncc(CC(C)(C)C)cc21` [compound 670, N-((1S,2R)-1-((4-chlorophenyl)methyl)-3-(((3R,4′S)-6′-(2,2-dimethylpropyl)-3′,4,4′,5-tetrahydrospiro[furan-3,2′-pyrano[2,3-b]pyridin]-4′-yl)amino)-2-hydroxypropyl)acetamide], the IC50 is 51.8 nM.

For `CC(=O)N[C@@H](Cc1ccc(F)cc1)[C@H](O)CN[C@H]1C[C@@]2(CCOC2)Oc2ncc(CC(C)(C)C)cc21` [compound 671], the IC50 turned out to be 20.5 nM.

As for `CC(=O)N[C@@H](Cc1ccc(F)cc1)[C@H](O)CN[C@H]1C[C@]2(CCOC2)Oc2ncc(CC(C)(C)C)cc21` [compound 672], the IC50 was determined as 23.8 nM.

In the case of `CC(=O)N[C@@H](Cc1ccc(F)cc1)[C@H](O)CN[C@H]1CC2(CCC2)Oc2ncc([C@@H](F)C(C)(C)C)cc21` [compound 674], the IC50 was determined as 1080 nM.

For `CC(=O)N[C@@H](Cc1ccc(F)cc1)[C@H](O)CN[C@H]1CC2(CCC2)Oc2ncc([C@H](F)C(C)(C)C)cc21` [compound 675], the IC50 came out at 12.1 nM.

For `CC(=O)N[C@@H](Cc1ccc(F)c(C(F)(F)F)c1)[C@H](O)CN[C@H]1CC2(CCC2)Oc2ncc(CC(C)(C)C)cc21` [compound 676], the IC50 stood at 18.1 nM.

The record behind these values is patent publication US7973047B2, “Beta-Secretase modulators and methods of use” (Amgen Inc., priority 2010, dated 2011).
